What was measured:
4 sensitive cell lines = assay: Rescue of toxicity by sodium oleate in 4 sensitive lines; type: cell-based, human; conditions: 100 μM sodium oleate
Excerpt: FIGS. 8D-8E. Sodium oleate rescues the toxicity of SCD1 inhibitors.
Consistent with this interpretation, the toxicity of SW208108 against 4 sensitive cell lines was fully rescued by adding sodium oleic acid to the culture media (FIG. 8D). Moreover, a commercially available SCD1 inhibitor (Cayman chemicals), originally described by Liu et al (compound 28c in the Journal of Medicinal Chemistry, 2007, 50, 3086-3100) was likewise toxic to the same 4 non-small cell lung cancer cell lines (FIG. 8E).

H2122 cells = assay: Covalent labelling of proteins in H2122 cells (click to fluorescent azide, SDS-PAGE); type: cell-based, human
Description: FIG. 7A. […] H2122 cells were treated with the indicated concentrations of SW208108 for 4 h followed by irradiation with a UV light or no irradiation. Cells were then lysed, protein was precipitated, resuspended in buffer and conjugated to an azide-containing dye using Cu catalysis following standard protocols. Samples were resolved under denaturing conditions on an SDS-PAGE gel and visualized using a fluorescent imager at the indicated wavelengths.
FIG. 7B. Chromone and Benzothiazole alkynes, like the oxalamide, covalently bind proteins of similar molecular weight. The arrows indicate a 37 kD and 30 kD band common to all three scaffolds.
To identify the target of the benzothiazoles, oxalamides, N-acyl ureas and chromones, we generated a potent oxalamide, SW208108, that features both a “crosslinker” and a “tag”. Upon exposure to UV light, the benzophenone group becomes reactive and was anticipated to crosslink to a nearby amino acid, and the alkyne serves as a “tag” by its capacity to react with an azide through “click chemistry”. Combining these features, we treated H2122 cells with various concentrations of SW208108 and either cultured them normally (“−UV”) or irradiated them briefly with UV light (“+UV”). Subsequently, we “clicked” the resulting lysate to a fluorescent azide, and detected multiple fluorescently labeled proteins on SDS-PAGE (FIG. 7A). […]

H2122 clones = assay: Toxicity to H2122 clones with loss of HMOX2; type: cell-based, human
Description: FIG. 7O. H2122 cells were engineered to have homozygous or heterozygous loss of HMOX2. hCas9 and guide RNA's targeting HMOX2 were co-expressed in H2122 cells and then cells were individually cloned. Individual clones were raised and analyzed for HMOX2 expression.
FIG. 7P. HMOX2 loss has no impact on the sensitivity of cells to SW208108. A dose response curve assaying the toxicity of SW208108 to H2122 clones identified in FIG. 7O was determined. There is no correlation between HMOX2 expression and SW208108 potency.
However, when HO2 was knocked out from H2122 cells using Crisper technology (FIG. 7O), no toxicity was observed, and SW208108 and related compounds retained toxicity towards H2122 cells (FIG. 7P). We conclude that HO2 is not required for cell survival or for the cytotoxicity of the selective toxins.

SCD1 = target: T1, SCD1 (Homo sapiens, UniProt O00767); assay: Immunoprecipitation of SW208108-bound protein with anti-SCD1; type: binding; set-up: The fluorescent bands confirm that p30 and p37 represent isoforms of SCD1; endogenous in cells; host or cells: H2122 cells
T1 sequence (O00767 1-359): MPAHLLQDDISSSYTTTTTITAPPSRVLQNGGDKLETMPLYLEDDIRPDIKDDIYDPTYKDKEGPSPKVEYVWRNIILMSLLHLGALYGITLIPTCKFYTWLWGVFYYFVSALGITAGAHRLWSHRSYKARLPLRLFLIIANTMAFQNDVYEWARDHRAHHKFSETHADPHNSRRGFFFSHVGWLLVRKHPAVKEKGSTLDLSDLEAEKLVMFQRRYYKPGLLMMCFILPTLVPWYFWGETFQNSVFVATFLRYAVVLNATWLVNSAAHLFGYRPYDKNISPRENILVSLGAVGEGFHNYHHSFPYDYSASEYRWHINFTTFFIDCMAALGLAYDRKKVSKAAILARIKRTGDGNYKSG
Description: FIG. 7L. Antibodies against SCD1 (Pierce) immunoprecipitate SW208108-bound protein. Samples were prepared as in FIG. 7A, and immunoprecipitated with either anti-SCD1 or IgG. The fluorescent bands confirm that p30 and p37 represent isoforms of SCD1.
SCD1 is the functional target of the oxalamides, benzothiazoles, chromones, and related derivatives. Covalent binding of SW208108 to SCD1 was confirmed by incubating cells in the presence of SW208108, lysing them, immunoprecipitating with antibodies to SCD1, and then clicking drug-bound proteins to a dye.

Compound: C#CCOc1ccc(C(=O)c2ccc(NC(=O)C(=O)NCCc3ccc(OC)cc3)cc2)cc1 [SW208108]
- toxicity against 4 sensitive cell lines with sodium oleic acid (4 sensitive cell lines): fully rescued
- covalent modification of proteins (p37, p30) in H2122 cells without UV (H2122 cells): covalently cross links proteins
- impact of HMOX2 loss on sensitivity of H2122 clones (H2122 clones): no impact
- covalent binding to SCD1 (immunoprecipitation) (SCD1): confirmed

Source: patent publication US9789096B2, “Methods and compositions for selective and targeted cancer therapy” (Board of Regents of the University of Texas System, priority 2013, dated 2017)
